We go through three molecules from patent US5552407A (priority 1993, dated 1996).

Data set [1] relates to muscarinic receptor. The conditions noted are these: cited from earlier work.
Data set [2] deals with guinea pig tracheal rings. Nature of the data set: Relaxation or tension of pre-contracted tracheal rings.
Data set [3] concerns guinea pig tracheal rings. Nature of the data set: Acetylcholine-induced contraction of isolated tracheal rings. As to conditions: for spasmogenic activity by itself: absence of ACh; for minimal effective concentration: Cavia porcellus, 5 min.
Data set [4] deals with guinea pig tracheal rings. As to conditions: atropine at 3, 10 and 30 nM; cited from earlier work.
In data set [5] the test system is guinea pig tracheal rings. The conditions noted are these: cited from earlier work.
For data set [6], the system named is chicken biventer cervicis muscle. The data set can be described thus: Chicken biventer cervicis muscle in vitro, assay for antinicotinic activity. The class given is cell-based. The text has this:
As observed by the present inventors, MEG was ineffective in altering the amplitude of tension produced by supramaximal electrical stimulation, or ACh-produced contraction of the chicken biventer cervicis muscle in vitro, an assay for antinicotinic activity (B. L. Ginsborg et al., Br. J. Pharmacol. 15:410 (1960); H. A. N. El-Fawal et al., Neurotoxicology 9:625 (1988)).

Data set [7] deals with squirrel monkeys. Nature of the data set: Whole body plethysmograph, airway conductance / bronchoconstriction in vivo. The arrangement: species or system squirrel monkey. As to the method:
(§1) Squirrel monkeys or guinea pigs were restrained in a whole body plethysmograph, a sealed box with a separate face mask for each animal. A pneumotachograph and stain gauge assembly permitted the measurement of flow. The ratio of derivatives of flow to box pressure yield a measure of airway conductance (SGAW). MEG was administered at concentrations up to 15 mg/liter of air.
This was studied by exposing a population of squirrel monkeys, which were well-trained and adapted to the experimental setting, to aerosolized cholinergic agonists and then studying the effects of MEG or cocaine pretreatment on the response to cholinergic provocation.
Care was taken to exclude any other source of potential measurement artifact, including reducing dead volumes, examining for leaks, recalibration, and so forth. The particles were dehydrated to reduce their size and facilitate airway entry. The monkeys' nares were occluded to compel mouth breathing. Greater methacholine concentrations in the nebulizer were tested until dramatic decreases in heart rate occurred, consistent with significant systemic absorption of this relatively short duration cholinergic agonist.
This may reflect the antihistaminic activity of MEG observed in vitro.

Data set [8] concerns guinea pigs. The data set can be described thus: Inhalation exposure safety in guinea pigs. It counts as in vivo, guinea pig. As for the experimental part:
as §1
Guinea pigs are known to be highly sensitive to pulmonary manipulations.

Data set [9] concerns guinea pig tracheal rings. Nature of the data set: Carbachol-induced contraction of isolated tracheal rings. The conditions noted are these: Cavia porcellus, 5 min, read-out: reduction of carbachol-induced contraction.
Data set [10] concerns guinea pig tracheal rings. Nature of the data set: Histamine-induced contraction of isolated tracheal rings.

Entries after “also recorded” stand apart in the source; their conditions may differ. Like-named read-outs stand apart in the source and are kept apart here. A value given as a limit tells only on which side of the number the result lay.

For the molecule `COC(=O)[C@H]1[C@@H](OC(=O)c2ccccc2)C[C@@H]2CC[C@H]1N2C` [cocaine, reference compound], in [1], the “concentration with antimuscarinic properties as assayed by QNB binding” value is 18 µM. In data set [2] (cocaine from 10^-4 M to 2×10^-3 M), the “effect on tissue pre-contracted with ACh” value is reported as “further increase in dose-dependent tension”. For the same molecule, the “spasmogenic activity by itself” value in [3] was “did not produce tension in the absence of ACh”; in data set [3] (listed as Cocaine) it was “did not display any spasmogenic activity”. In addition, the “effect on maximum tension produced by ACh” value in data set [3] (cocaine 5×10^-6 M) is reported as “increased the maximum tension produced”. In addition, in data set [3] (cocaine 5×10^-6 M), the “lowering of the threshold at which ACh produced tension” value was “two orders of magnitude”. Besides, the “concentration that decreased ACh-induced tension” value in data set [3] (cocaine HCl) is given as 10^-4 M. Besides, the “concentrations that increased ACh-induced tension” value in [3] (cocaine HCl, 5 min incubation) is on record as 10^-7 to 10^-5 M. Besides, in data set [3] (cocaine at 10^-4 M), the “effect on maximum response relative to ACh alone” value was “reduced the maximum response to a third”. For the same molecule, the “effect on threshold for contraction elicited by ACh” value in data set [3] (cocaine at 10^-4 M) was “increased the threshold”; in [3] (cocaine at 10^-6 M) it was “lowered the threshold”. The “effect on tension produced by ACh at the highest ACh concentration” value in data set [3] (cocaine at 10^-7 M, ACh 2×10^-3 M) was “increased the tension”. In data set [3] (cocaine at concentrations below 10^-4 M), the “recovery of responsiveness to ACh after exposure” value was “restored with no desensitization”.

With `CN1[C@@H]2CC[C@H]1C[C@@H](OC(=O)C(CO)c1ccccc1)C2` (some centres unmarked) [atropine], in [4], the “kind of antagonism of ACh-induced contraction” value is “competitively antagonized ACh-induced contraction”. Besides, in [5] (10^-7 M atropine), the “carbachol concentration at which the effect was surmountable” value was 10^-4 M. The “magnitude of reduction at any given carbachol concentration, compared with MEG” value in data set [5] (10^-7 atropine) is reported as “usually less than that produced by MEG”.

Consider `COC(=O)C1=CCC2CCC1N2C` (centres unmarked) [MEG, anhydroecgonine methyl ester], for which the “effect on amplitude of tension from supramaximal electrical stimulation or ACh-produced contraction” value in data set [6] is “ineffective”. The “bronchoconstriction in response to inhaled histamine” value in data set [7] (animals pretreated with MEG) was “bronchoconstriction, but only at unusually high levels”. Further, in data set [7] (squirrel monkeys or guinea pigs, up to 15 mg/liter of air), the “airway effect of MEG given alone by inhalation” value is recorded as “Bronchoconstriction was observed”. In addition, the “bronchoconstriction in response to aerosolized ACh or methacholine” value in data set [7] (squirrel monkeys with extensive histories of exposure to MEG) is listed as “unable to produce bronchoconstriction; also recorded: no bronchoconstriction observed”. Also, in [8] (14 mg/liter of air by inhalation), the mortality entry is “Only one exposed guinea pig died”. Moreover, in [8] (in vivo studies), the margin of safety result was “wide margin of safety”. For the same molecule, the “effect on rings with mechanically elevated tension” value in data set [2] is given as “failed to relax”. For the same molecule, in data set [2] (pre-contraction with 10^-3 ACh), the “concentrations for relaxation relative to those antagonizing ACh-induced contraction with preincubation” value is on record as “two orders of magnitude higher”. For the same molecule, in data set [2] (pre-contraction with 10^-3 ACh), the “effect on rings pre-contracted with ACh” value was “dose-dependent relaxation”. Further, in data set [9], the inhibition at 0.1 µM was 50%. The “effect on histamine threshold” value in data set [10] (MEG 10^-7) is “shifting the histamine threshold upwards”. Moreover, the “effect on contraction-inducing action of histamine” value in data set [10] (MEG 10^-7 and 10^-9 M) is reported as “antagonized the contraction-inducing action of histamine”. Besides, the cholinergic agonist activity entry in data set [3] is recorded as “lack any cholinergic agonist activity”. In addition, the “kind of antagonism of ACh-induced contraction” value in data set [3] (ACh up to 2×10^-3 M) was “reduced the magnitude of contraction produced by ACh without changing the tissue threshold of contraction; also recorded: could not be overcome; also recorded: non-competitively antagonized acetylcholine; also recorded: potent non-competitive cholinergic antagonist”. Further, the minimal effective concentration in data set [3] (read-out: concentration at and above which insurmountable non-competitive antagonism was produced) was no less than 0.001 µM; in [3] (read-out: concentration at and above which peak tension produced by ACh was reduced) it was no less than 0.001 µM; in data set [3] (read-out: lowest level showing anticholinergic properties), 0.1 µM. For the same molecule, the “effect of MEG on cocaine's sensitization/potentiation of ACh” value in data set [3] (MEG 10^-7 M with cocaine 5×10^-6 M) was “antagonized cocaine's potentiation of acetylcholine's efficacy; also recorded: reduced the sensitization to ACh; also recorded: non-competitively antagonized ACh in the presence of cocaine sensitization”. Moreover, the “recovery of responsiveness to ACh after exposure” value in [3] (after washing of the preparation) was “full responsiveness to ACh could not be restored; also recorded: no recovery after washing of the preparation; also recorded: irreversible”.
